Key:
gastric juice secretion [1] = assay: Anti-gastric juice secretion test, intraduodenal administration (pylorus ligation); assay type: in vivo, Crj:Wistar rat (male); settings: 100 mg/kg intraduodenal, 4 h after pylorus ligation; for pH of gastric juice: control 1.7; for Amount of gastric juice: control 2.6; for Free hydrochloric acid: control 116; for Total acidity: control 168
Description: Each 100 mg/kg of the test compounds was administered duodenally to a male Crj:Wistar rat of 205 to 240 g body weight fasted for ca. 24 hours (7 to 8 rats per group) and immediately after the dose the pylorus was ligated under diethyl ether anesthesia. Four hours after the ligation, the animal was killed and the stomach was isolated and the amount and the pH of gastric juice and free hydrochloric acid contained in it and the total acidity of it were measured to examine the effect of inhibiting gastric juice secretion. The test compounds were dosed after dissolved in physiological saline or in physiological saline containing Tween 80 added. Five […] of physiological saline was administered to the control group.

aspirin ulcer [2] = assay: Anti-aspirin ulcer test, oral administration; assay type: in vivo, Crj:Wistar rat (male); settings: 100 mg/kg oral; for Gastric damage index: 30 min before aspirin 200 mg/kg oral, control 76.0; for Gastric damage index / inhibition in vivo at 100 mg/kg: 6 h; for inhibition in vivo at 100 mg/kg: Rattus norvegicus, read-out: Inhibition rate
Description: (§1) Each 100 mg/kg of the test compounds was administered orally to a male Crj:Wistar rat of 198 to 243 g body weight fasted for ca. 24 hours (7 to 8 rats per group) and 30 minutes after the administration 200 mg/5 ml/kg of aspirin suspended in 0.5% sodium CMC aqueous solution was administered orally. Six hours later the animals was killed by exsanguination and the cardia part of stomach was ligated and 10 ml of 1% formaline solution was poured into the stomach and the stomach was extirpated. Then, it was incised along the greater curvature side and washed with physiological saline and the major axis of the spotted and linear erosion and ulcer were measured under a steromicroscope and their total sum per head was calculated as the gastric damage index (mm) and the effect was judged by the inhibiting rate against the control group [(Gastric damage index of the control group-Gastric damage index of the test compound)/Gastric damage index of the control group×100]. 0.5 ml/body weight of 1% pontamine sky blue physiological saline was injected intravenously 10 minutes before the slaughter. The test compound was administered after dissolved in physiological saline or in physiological saline containing Tween 80 added. Five […] of physiological saline was administered to the control group.

[3] = tested on: water immersion restriction stress ulcer; assay: Water immersion restriction stress ulcer, oral administration; assay type: in vivo, Crj:Wistar rat (male); settings: 100 mg/kg oral; for Gastric damage index: 30 min before 6 h water immersion stress, control 15.7; for inhibition in vivo at 100 mg/kg: Rattus norvegicus, 6 h, read-out: Inhibition rate
Description: (§2) After the stress loading, the animal was killed by exsanguination and the cardia part of stomach was ligated and then 10 ml of 1% formalin was poured into the stomach and the stomach was extirpated. […] 0.5 ml/body weight of 1% pontamine sky blue physiological saline was injected intravenously 10 minutes before the slaughter. The test compound was administered after dissolved in physiological saline or in physiological saline containing Tween 80 added. Five […] of physiological saline was administered to the control group.

[4] = Acute toxicity, oral administration; assay type: in vivo, Sle:ICR mouse (male); settings: 300 mg/kg oral, 6 hours observation; for Mortality rate: deaths/mice
Description: (§3) Each test compound was administered to a male Sle:ICR mouse of 29 to 32 g body weight fasted for 18 to 20 hours (5 mice per group) to examine the presence of acute toxicity.

gastric juice secretion [5] = assay: Anti-gastric juice secretion test, intraperitoneal administration (pylorus ligation); assay type: in vivo, Crj:Wistar rat (male); settings: 100 mg/kg intraperitoneal, 30 min before pylorus ligation; for pH of gastric juice: control 1.7; for Amount of gastric juice: control 3.2; for Free hydrochloric acid: control 155; for Total acidity: control 208
aspirin ulcer [6] = assay: Anti-aspirin ulcer test, intraperitoneal administration; assay type: in vivo, Crj:Wistar rat (male); settings: for Gastric damage index: 100 mg/kg intraperitoneal (abdominally injected), control 58.8; for Inhibition rate: gastric damage index vs control, 100 mg/kg intraperitoneal
Description: as §1
Each 100 mg/kg of the test compound was abdominally injected to a male Crj:Wistar rat of 210 to 265 g body weight fasted for ca. 24 hours (7 to 8 rats per group) and the procedures were carried out in a same manner as in oral administration.

[7] = tested on: water immersion restriction stress ulcer; assay: Water immersion restriction stress ulcer, intraperitoneal administration; assay type: in vivo, Crj:Wistar rat (male); settings: 100 mg/kg intraperitoneal; for Gastric damage index: control 22.7; for Inhibition rate: gastric damage index vs control
Description: as §2

[8] = Acute toxicity, intraperitoneal administration; assay type: in vivo, Sle:ICR mouse (male); settings: 200 mg/kg intraperitoneal, 6 hours observation; for Mortality rate: deaths/mice
Description: as §3

[9] = gastric damage index vs control, aspirin 200 mg/kg
[10] = gastric damage index vs control, water immersion stress

| Compound | pH of gastric juice (gastric juice secretion [1]) | Amount of gastric juice (gastric juice secretion [1]) | Free hydrochloric acid (gastric juice secretion [1]) | Total acidity (gastric juice secretion [1]) | Gastric damage index (aspirin ulcer [2]) | inhibition in vivo at 100 mg/kg (aspirin ulcer [2]; [9]) | Gastric damage index [3] | inhibition in vivo at 100 mg/kg [3, 10] | General condition [4] | Mortality rate [4] | pH of gastric juice (gastric juice secretion [5]) | Amount of gastric juice (gastric juice secretion [5]) | Free hydrochloric acid (gastric juice secretion [5]) | Total acidity (gastric juice secretion [5]) | Gastric damage index (aspirin ulcer [6]) | Inhibition rate (aspirin ulcer [6]) | Gastric damage index [7] | Inhibition rate [7] | General condition [8] | Mortality rate [8] | also measured |
| --- | --- | --- | --- | --- | --- | --- | --- | --- | --- | --- | --- | --- | --- | --- | --- | --- | --- | --- | --- | --- | --- |
| CN(C(Cc1ccc(O)cc1)CN1CCN(C(=O)OCc2ccccc2)CC1)S(=O)(=O)c1cccc2cnccc12 (stereo not drawn) [(4), N-[2-(4-benzyloxycarbonylpiperazinyl)-1-(p-hydroxybenzyl)ethyl]-N-methyl-5-isoquinoline sulfonamide] | 2.3 | 1.8 ml/100 g body weight | 36 μEq/100 g body weight | 74 μEq/100 g body weight | 34.6 mm | 55% | 8.4 mm | 46% | No abnormality | 0/5 | – | – | – | – | – | – | – | – | – | – | – |
| COc1ccc(CC(CN2CCN(C(=O)OCc3ccccc3)CC2)N(C)S(=O)(=O)c2cccc3cnccc23)cc1 (stereo not drawn) [(5), N-[2-(4-benzyloxycarbonylpiperazinyl)-1-(p-methoxybenzyl)ethyl]-N-methyl-5-isoquinoline sulfonamide] | 2.3 | 1.8 ml/100 g body weight | 48 μEq/100 g body weight | 80 μEq/100 g body weight | 36.5 mm | 53% | 7.7 mm | 51% | No abnormality | 0/5 | – | – | – | – | – | – | – | – | – | – | – |
| CN(C(Cc1ccc(O)cc1)CN1CCCN(C(=O)OCc2ccccc2)CC1)S(=O)(=O)c1cccc2cnccc12 (stereo not drawn) [(14), N-[2-(4-benzyloxycarbonylhomopiperazinyl)-1-(p-hydroxybenzyl)ethyl]-N-methyl-5-isoquinoline sulfonamide] | 3.1 | 0.6 ml/100 g body weight | 8 μEq/100 g body weight | 11 μEq/100 g body weight | 11.2 mm | 85% | 4.3 mm | 73% | No abnormality | 0/5 | 3.0 | 0.6 ml/100 g body weight | 4 μEq/100 body weight | 17 μEq/100 body weight | 5.3 mm | 91% | 3.9 mm | 83% | No abnormality | 0/5 | – |
| COc1ccc(CC(CN2CCCN(C(=O)OCc3ccccc3)CC2)N(CCN)S(=O)(=O)c2cccc3cnccc23)cc1 (stereo not drawn) [(15), N-[2-(4-benzyloxycarbonylhomopiperazinyl)-1-(p-methoxybenzyl)ethyl]-N-(2-aminoethyl)-5-isoquinoline sulfonamide] | 2.6 | 1.1 ml/100 g body weight | 22 μEq/100 g body weight | 43 μEq/100 g body weight | 35.8 mm | – | 6.6 mm | – | – | 0/5 | 2.6 | 1.3 ml/100 g body weight | 36 μEq/100 body weight | 74 μEq/100 body weight | 11.8 mm | 80% | 6.6 mm | 71% | – | 0/5 | Inhibition rate (aspirin ulcer [2]; [9]): 64%; Inhibition rate [3, 10]: 58% |
| COc1ccc(CC(CN2CCCN(C(=O)OCc3ccccc3)CC2)N(CCN(C)C)S(=O)(=O)c2cccc3cnccc23)cc1 (stereo not drawn) [(16), N-[2-(4-benzyloxycarbonylhomopiperazinyl)-1-(p-methoxybenzyl)ethyl]-N-(2-dimethylaminoethyl)-5-isoquinoline sulfonamide] | 2.9 | 0.9 ml/100 g body weight | 11 μEq/100 g body weight | 29 μEq/100 g body weight | 17.0 mm | 78% | 4.6 mm | 70% | No abnormality | 0/5 | 2.9 | 0.6 ml/100 g body weight | 8 μEq/100 body weight | 24 μEq/100 body weight | 10.6 mm | 82% | 5.4 mm | 76% | No abnormality | 0/5 | – |
